Where a name gives a salt, the structure may show the parent alone. Read-outs that look alike come from different tables or passages of the source.
Assays:
Format in all cases: cell-based
[1] = tested on: human hepatocellular carcinoma cell line SNU398; experiment: Caspase cascade activation in SNU398 cells; conditions: Homo sapiens, SNU-398, 48 h, read-out: Caspase activation Potency EC50 SNU398 (48 h)
Experimental: (§1) Human breast cancer cell line T-47D, human lung cancer cell line H1299, human hepatocellular carcinoma cell line SNU398, human colon carcinoma cell line HCT116 were grown according to media component mixtures designated by American Type Culture Collection+10% FCS (Invitrogen Corporation), in a 5% CO2-95% humidity incubator at 37° C. T-47D and H1299 cells were maintained at a cell density between 50 and 80% confluency at a cell density of 0.1 to 0.6×10^6 cells/mL. Cells were harvested at 600×g and resuspended at 0.65×10^6 cells/mL into appropriate media+10% FCS. An aliquot of 22.5 μL of cells was added to a well of a 384-well microtiter plate containing 2.5 μL of a 10% DMSO in RPMI-1640 media solution containing 0.16 to 100 μM of N-(2,5-dimethoxyphenyl)-2-methylthieno[3,2-d]pyrimidin-4-amine or other test compound (0.016 to 10 μM final). An aliquot of 22.5 μL of cells was added to a well of a 384-well microtiter plate containing 2.5 μL of a 10% DMSO in RPMI-1640 media solution without test compound as the control sample. The samples were mixed by agitation and then incubated at 37° C. for 24 h or 48 h in a 5% CO2-95% humidity incubator. After incubation, the samples were removed from the incubator and 25 μL of a solution containing 14 μM of N-(Ac-DEVD)-N′-ethoxycarbonyl-R110 (SEQ ID NO.:1) fluorogenic substrate (Cytovia, Inc.; WO99/18856), 20% sucrose (Sigma), 20 mM DTT (Sigma), 200 mM NaCl (Sigma), 40 mM Na PIPES buffer pH 7.2 (Sigma), and 500 μg/mL lysolecithin (Calbiochem) was added. The samples were mixed by agitation and incubated at room temperature. Using a fluorescent plate reader (Model SPECTRAfluor Plus, Tecan), an initial reading (T=0) was made approximately 1-2 min after addition of the substrate solution, employing excitation at 485 nm and emission at 530 nm, to determine the background fluorescence of the control sample. After the 3 h incubation, the samples were read for fluorescence as above (T=3 h).
(§2) The Relative Fluorescence Unit values (RFU) were used to calculate the sample readings as follows: RFU(T=3h)−Control RFU(T=O)=Net RFU(T=3h)
(§3) The activity of caspase cascade activation was determined by the ratio of the net RFU value for N-(2,5-dimethoxyphenyl)-2-methylthieno[3,2-d]pyrimidin-4-amine or other test compound to that of control samples. The EC50 (nM) was determined by a sigmoidal dose-response calculation (Prism 3.0, GraphPad Software Inc.).

[2] = tested on: human colon carcinoma cell line HCT116; experiment: Caspase cascade activation in HCT116 cells; conditions: Homo sapiens, HCT-116, 48 h, read-out: Caspase activation Potency EC50 HCT116 (48 h)
Experimental: as §1, §2, §3

[3] = tested on: human lung cancer cell line H1299; experiment: Caspase cascade activation in H1299 cells; conditions: NCI-H1299, 24 h, read-out: Caspase activation Potency EC50 H1299 (24 h)
Experimental: as §1, §2, §3

[4] = tested on: human breast cancer cell line T-47D; experiment: Caspase cascade activation (DEVD-R110 fluorogenic substrate) in T-47D cells; conditions: Homo sapiens, T47D
Experimental: as §1, §2, §3

[5] = 24 h, T47D cells, 24 h, read-out: Caspase activation Potency EC50 T47D (24 h)
[6] = 48 h, T-47D cells, 48 h, read-out: Caspase activation Potency EC50 T-47D (48 h)

| Compound | EC50 [1] [µM] | EC50 [2] [µM] | EC50 [3] [µM] | EC50 [4, 5] [µM] | EC50 [4, 6] [µM] |
| --- | --- | --- | --- | --- | --- |
| COc1ccc([N+](=O)[O-])c(Nc2ncnc3ccsc23)c1 [Example 35, N-(5-Methoxy-2-nitrophenyl)thieno[3,2-d]pyrimidin-4-amine] | > 10 | > 10 | > 10 | > 10 | > 10 |
| COc1ccc(Cl)cc1Nc1ncnc2ccsc12 [Example 39, N-(5-Chloro-2-methoxyphenyl)thieno[3,2-d]pyrimidin-4-amine] | > 10 | > 10 | > 10 | > 10 | 6.9 |
| COc1ccc(OC)c(Nc2nc(C)nc3sccc23)c1 [Example 3, N-(2,5-Dimethoxyphenyl)-2-methylthieno[2,3-d]pyrimidin-4-amine] | 4.66 | 5.55 | 5 | 0.121 | 0.311 |
| COc1ccc(OC)c(Nc2ncnc3c(C)c(I)sc23)c1 [Example 18, 6-Iodo-N-(2,5-dimethoxyphenyl)-7-methylthieno[3,2-d]pyrimidin-4-amine hydrochloride] | > 10 | > 10 | 2.79 | 0.071 | 0.171 |
| COc1ccc(OC)c(Nc2ncnc3cc(I)sc23)c1 [Example 17, 6-Iodo-N-(2,5-dimethoxyphenyl)thieno[3,2-d]pyrimidin-4-amine hydrochloride] | 0.534 | 0.346 | 0.299 | 0.036 | 0.105 |
| COc1cc(Nc2nc(C)nc3cc(Br)sc23)cc(N(C)C)c1 [Example 66, 6-Bromo-N-(3-dimethylamino-5-methoxyphenyl)-2-methylthieno[3,2-d]pyrimidin-4-amine] | 0.297 | 0.498 |  |  | 0.065 |
| COc1ccc(Nc2nc(C)nc3sccc23)cc1 [Example 15, N-(4-Methoxyphenyl)-2-methylthieno[2,3-d]pyrimidin-4-amine] | 5.28 | > 10 | 5.08 | 5.74 | 5.46 |
| COc1cc(Nc2ncnc3sc(-c4ccccc4)c(C)c23)cc(OC)c1 [Example 49, N-(3,5-Dimethoxyphenyl)-5-methyl-6-phenylthieno[2,3-d]pyrimidin-4-amine] | > 10 | > 10 |  |  | > 10 |
| COc1cc(O)cc(Nc2ncnc3ccsc23)c1 [Example 44, N-(3-Hydroxy-5-methoxyphenyl)thieno[3,2-d]pyrimidin-4-amine] |  |  | 2.68 | 1.1 |  |
| COc1cc(Nc2nc(C)nc3ccsc23)cc(-n2cnnn2)c1 [Example 65, N-(3-Methoxy-5-(1H-tetrazol-1-yl)phenyl)-2-methylthieno[3,2-d]pyrimidin-4-amine] | 0.354 | 0.62 |  |  | 0.457 |
| Cc1cc(C)cc(Nc2ncnc3ccsc23)c1 [Example 57, N-(3,5-Dimethylphenyl)thieno[3,2-d]pyrimidin-4-amine] | > 10 | > 10 |  |  | > 10 |
| COc1cc(Nc2ncnc3ccsc23)cc(C(F)(F)F)c1 [Example 56, N-(5-Methoxy-3-trifluoromethylphenyl)thieno[3,2-d]pyrimidin-4-amine] | 1.03 | 2.61 |  |  | 1.84 |
| COc1c(Br)c(N)c(Br)c(Nc2ncnc3ccsc23)c1Br [Example 73, N-(3-Amino-2,4,6-tribromo-5-methoxyphenyl)thieno[3,2-d]pyrimidin-4-amine] | 0.605 | 1.67 |  |  | 0.486 |
| COc1cc(Nc2ncnc3cc(Br)sc23)cc(N(C)C)c1 [Example 64, 6-Bromo-N-(3-dimethylamino-5-methoxyphenyl)thieno[3,2-d]pyrimidin-4-amine] | 0.565 | 1.28 |  |  | 0.131 |
| COc1cc(Nc2ncnc3cc(Br)sc23)cc(OC)c1 [Example 67, 6-Bromo-N-(3,5-dimethoxyphenyl)thieno[3,2-d]pyrimidin-4-amine] | 4.95 | > 10 |  |  | 0.227 |
| COc1cc(Nc2ncnc3cc(I)sc23)cc(OC)c1 [Example 53, N-(3,5-Dimethoxyphenyl)-6-iodothieno[3,2-d]pyrimidin-4-amine] | 0.868 | 2.45 |  |  | 0.723 |
| COc1cc(Nc2ncnc3c(C)csc23)cc(OC)c1 [Example 46, N-(3,5-Dimethoxyphenyl)-7-methylthieno[3,2-d]pyrimidin-4-amine] | > 10 | > 10 |  |  | 1.52 |

Other lines, results leading:

| EC50 [1] [µM] | EC50 [2] [µM] | EC50 [3] [µM] | EC50 [4, 5] [µM] | EC50 [4, 6] [µM] | Compound |
| --- | --- | --- | --- | --- | --- |
| > 10 | > 10 | > 10 | > 10 | > 10 | Oc1cc(O)cc(Nc2ncnc3ccsc23)c1 [Example 43, N-(3,5-Dihydroxyphenyl)thieno[3,2-d]pyrimidin-4-amine] |
| > 10 | > 10 |  |  | 1.99 | COc1cc(Nc2ncnc3sc(C)cc23)cc(OC)c1 [Example 48, N-(3,5-Dimethoxyphenyl)-6-methylthieno[2,3-d]pyrimidin-4-amine] |
| > 10 | > 10 |  | 0.112 | 0.099 | COc1cc(Nc2nc(C)nc3sccc23)cc(OC)c1 [Example 55, N-(3,5-Dimethoxyphenyl)-2-methylthieno[2,3-d]pyrimidin-4-amine] |
| 0.706 | 1.26 |  |  | 0.32 | COc1cc(Nc2nc(C)nc3ccsc23)cc(N(C)C)c1 [Example 63, N-(3-Dimethylamino-5-methoxyphenyl)-2-methylthieno[3,2-d]pyrimidin-4-amine] |
| > 10 | > 10 |  |  | 0.087 | COc1cc(Nc2ncnc3sccc23)cc(OC)c1 [Example 45, N-(3,5-Dimethoxyphenyl)thieno[2,3-d]pyrimidin-4-amine] |
| 0.468 | 0.082 |  | 0.032 | 0.033 | COc1cc(Nc2nc(C)nc3cc(Br)sc23)cc(OC)c1 [Example 52, N-(3,5-Dimethoxyphenyl)-6-bromo-2-methylthieno[3,2-d]pyrimidin-4-amine] |
| 2.64 | 3.7 |  |  | 2.49 | COc1cc(Nc2nc(C)nc3scc(C)c23)cc(OC)c1 [Example 51, N-(3,5-Dimethoxyphenyl)-2,5-dimethylthieno[2,3-d]pyrimidin-4-amine] |
| 3.25 | > 10 |  |  | > 10 | COc1cc(Nc2ncnc3ccsc23)cc([N+](=O)[O-])c1 [Example 59, N-(3-Methoxy-5-nitrophenyl)thieno[3,2-d]pyrimidin-4-amine] |
| > 10 | > 10 |  |  | > 10 | CS(=O)(=O)c1cc(Nc2ncnc3ccsc23)cc(S(C)(=O)=O)c1 [Example 60, N-(3,5-Bis(methylsulfonyl)phenyl)thieno[3,2-d]pyrimidin-4-amine] |
| > 10 | > 10 |  |  | > 10 | COc1cc(Nc2ncnc3sc(C)c(C)c23)cc(OC)c1 [Example 47, N-(3,5-Dimethoxyphenyl)-5,6-dimethylthieno[2,3-d]pyrimidin-4-amine] |
| ≥ 10 | ≥ 10 |  |  | 4.36 | COc1cc(Nc2ncnc3scc(C)c23)cc(OC)c1 [Example 50, N-(3,5-Dimethoxyphenyl)-5-methylthieno[2,3-d]pyrimidin-4-amine] |
| 5.08 | > 10 |  |  | 2.95 | COc1cc(N)cc(Nc2ncnc3ccsc23)c1 [Example 68, N-(3-Amino-5-methoxyphenyl)thieno[3,2-d]pyrimidin-4-amine] |
| 0.168 | 0.347 |  | > 10 | 0.565 | COC(=O)c1cc(Nc2ncnc3ccsc23)cc(C(=O)OC)c1 [Example 58, Dimethyl 5-(thieno[3,2-d]pyrimidin-4-ylamino)benzene-1,3-dioate] |

— patent US20070099877A1, “N-aryl-thienopyrimidin-4-amines and analogs as activators of caspases and inducers of apoptosis and the use thereof” (Cytovia, Inc., priority 2005, published 2007)
